Consider 2 compounds from US11166930B2, “Isotopically modified components and therapeutic uses thereof” (RETROTOPE, INC., priority 2016, dated 2021).

The target of experiment [1] is COX1 (Homo sapiens, UniProt P23219). As to conditions: compared with other types of deuterated arachidonic acid; unmodified arachidonic acid as control. As for the experimental part:
The effect of a high level of isotopically modified polyunsaturated lipid (e.g. arachidonic acids having deuterium at bis-allylic sites) on the enzymatic activity of cyclooxygenase (COX) was examined in vitro. The COX1 activity was measured by oxygen consumption (Clark electrode) in vitro. […] Arachidonic acid with no deuterium modification was used as a control.

In experiment [2] the test system is Aldh2−/− mice. Conditions: Aldh2−/− mice as well as APP/PS1 and 3×Tg transgenic mice; cited from earlier work.

Chain of COX1 (P23219 24-599): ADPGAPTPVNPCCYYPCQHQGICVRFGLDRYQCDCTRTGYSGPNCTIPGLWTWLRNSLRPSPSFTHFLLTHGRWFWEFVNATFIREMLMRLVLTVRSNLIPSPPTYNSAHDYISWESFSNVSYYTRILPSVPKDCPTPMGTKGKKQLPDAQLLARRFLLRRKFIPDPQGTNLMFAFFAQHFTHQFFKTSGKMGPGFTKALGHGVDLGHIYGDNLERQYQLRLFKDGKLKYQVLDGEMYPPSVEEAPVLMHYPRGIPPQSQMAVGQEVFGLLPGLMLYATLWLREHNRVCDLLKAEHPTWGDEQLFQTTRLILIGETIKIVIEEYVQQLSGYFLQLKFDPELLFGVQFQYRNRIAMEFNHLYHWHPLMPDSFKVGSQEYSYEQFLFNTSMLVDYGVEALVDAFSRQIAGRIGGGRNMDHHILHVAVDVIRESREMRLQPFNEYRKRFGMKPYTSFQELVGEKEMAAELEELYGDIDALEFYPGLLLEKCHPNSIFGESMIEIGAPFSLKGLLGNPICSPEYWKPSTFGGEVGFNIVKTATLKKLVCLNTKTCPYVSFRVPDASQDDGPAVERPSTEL

`[2H]C([2H])(/C=C\C/C=C\C/C=C\CCCC(=O)O)/C=C\CCCCC` [13,13-D2-arachidonic acid]: the “reduction of COX1 activity” value in experiment [1] was “most effective in reducing the activity of COX1”.
Turning to `Cc1ncsc1CCO[N+](=O)[O-].Cl` [NMZ, 4-methyl-5-(2-(nitrooxy)ethyl)thiazol-3-ium chloride], the memory result in experiment [2] is “memory can be improved”.
